A short description of data set [1]: Dynamic vapour sorption (DVS). The format is physicochemical. On the procedure: Measurements were performed on instrument DVS—The Sorption Solution, Surface Measurement Systems Ltd. UK.
The principle of measurement is as follows: The sample measured is placed on one side of a very precise scale, a reference non-hydroscopic sample having been placed on the other side. The scale is located in an isolated chamber in which the relative humidity can be set. The hydroscopic sample being measured binds moisture from the environment, and an increase of mass is detected.
The ordinate axis represents the change of mass, abscise representing the humidity.

Data set [2] can be described thus: Stability test, amorphous versus form with bound water, 4 days in air at 60/80° C., dry or moist. The data set is classed as physicochemical. Conditions: for Physical form when exposed to moisture: 4 days. As for the experimental part: For evaluation and comparison, respectively, of the stability, four tests were conducted.
Data set [3] can be described thus: Solubility of crystalline forms of losartan potassium.
The nature of data set [4]: Rate of dissolution of the substance, 75 mg in 50 ml 0.1 M HCl. The format is physicochemical.
The conditions of data set [5]: 10 g exposed to heat while dried. On the procedure: Temperature stability of the sample of polymorph Form Y was tested by exposing 10 g polymorph Form Y potassium salt of -n-butyl-4-chloro-5-hydroxymethyl-1-[[2′-(1H-tetrazol-5-yl)[1,1′-biphenyl]-4-yl]methyl]-1H-imidazole to heat while dried.
For data set [6] the following is noted: for Loss of weight: ~10 mBar. As for the experimental part:
The sample was exposed to temperatures between 60° C. and 80° C. and negative pressure ˜10 mBar.

Molecules are shown by their SMILES. Read-outs that look alike come from different tables or passages of the source.

Take `CCCCc1nc(Cl)c(CO)n1Cc1ccc(-c2ccccc2-c2nn[nH]n2)cc1` [amorphous losartan potassium, losartan potassium]: the “Water content at repeated sorption, at which point the amorphous sample crystallizes” value in data set [1] (at 60% relative humidity) is “approximately 13%”. Besides, the Weight increase in data set [1] (at 70-80% relative humidity) is on record as 20-26%. Moreover, the “Absorption of water (increase of mass)” value in data set [1] (at 80% relative humidity, first sorption) is given as 25%. For the same compound, in data set [2], the “Hygroscopicity (comparison)” value was “essentially more hygroscopic than the form with bound water of losartan potassium”; the “Physical form when exposed to moisture” value is “merged into a glassy mass and then white crystals of form with bound water were formed”.

On to `CCCCc1nc(Cl)c(CO)n1Cc1ccc(-c2ccccc2-c2nnn[n-]2)cc1.[K+]` [crystalline form with bound water, losartan potassium], for which the “Content of water in sample after crystallization” value in data set [1] (after crystallization at 80% relative humidity) was “approximately 13%”. Also, in data set [1] (decreasing relative humidity), the “Relative humidity at which bound water is lost and the sample transforms into amorphous form” value is “below 20%”. In data set [3] (in water), the “Solubility (comparison in words)” value is “less soluble than known Form I, or amorphous losartan potassium”. Besides, in data set [2] (4 days in air, 60° C. or 80° C., dry atmosphere or moisture), the “Stability to temperature and moisture” value is reported as “at least as stable as amorphous”. Also, the “Physical form when exposed to moisture” value in data set [2] is “maintained the powdered form”.

On to `CCCCc1nc(Cl)c(CO)n1Cc1ccc(-c2ccccc2-c2nnn[n-]2)cc1.[K+]` [LST-K-1481, potassium salt of 2-n-butyl-4-chloro-5-hydroxymethyl-1-[[2′-(1H-tetrazol-5-yl)[1,1′-biphenyl]-4-yl]methyl]-1H-imidazole], for which the “SOLUBILITY in 0.1 M HCl” value in data set [3] (in 0.1 M HCl) came to 1.74 mg/mL. In addition, in data set [4], the “RATE OF DISSOLUTION” value was 14 min.

As for `CCCCc1nc(Cl)c(CO)n1Cc1ccc(-c2ccccc2-c2nnn[n-]2)cc1.[K+]` [LST-K-1496/1, potassium salt of 2-n-butyl-4-chloro-5-hydroxymethyl-1-[[2′-(1H-tetrazol-5-yl)[1,1′-biphenyl]-4-yl]methyl]-1H-imidazole], the “RATE OF DISSOLUTION” value in data set [4] is given as 13 min.

`CCCCc1nc(Cl)c(CO)n1Cc1ccc(-c2ccccc2-c2nn[nH]n2)cc1` [Form I, losartan potassium, reference compound]: the solubility in data set [3] (0.1 M HCl, simulated gastric fluid) was 1.52 mg/mL; in data set [3] (water), 630 mg/mL. In addition, the “RATE OF DISSOLUTION” value in data set [4] worked out at 16 min.

For `CCCCc1nc(Cl)c(CO)n1Cc1ccc(-c2ccccc2-c2nn[nH]n2)cc1` [Milled sample of Form I, losartan potassium, reference compound], the “RATE OF DISSOLUTION” value in data set [4] is listed as 8 min.

For the compound `CCCCc1nc(Cl)c(CO)n1Cc1ccc(-c2ccccc2-c2nnn[n-]2)cc1.[K+]` [polymorph Form Y, potassium salt of 2-n-butyl-4-chloro-5-hydroxymethyl-1-[[2′-(1H-tetrazol-5-yl)[1.1′-biphenyl]-4-yl]methyl]-1H-imidazole], the “Polymorph form after exposure to heat while dried” value in data set [5] is reported as “Polymorph Form X was obtained”.

In the case of `CCCCc1nc(Cl)c(CO)n1Cc1ccc(-c2ccccc2-c2nnn[n-]2)cc1.[K+]` [LST-K-3279, potassium salt of 2-n-butyl-4-chloro-5-hydroxymethyl-1-[[2′-(1H-tetrazol-5-yl)[1,1′-biphenyl]-4-yl]methyl]-1H-imidazole], the “Polymorphic form after storage” value in data set [6] (45-day storage in a closed flask at room temperature) is listed as “did not change its polymorphic forms”. Besides, the Loss of weight came out at 0.79% in data set [6] (60° C.) and 0.90% in data set [6] (80° C.). Further, in data set [6] (between 60° C. and 80° C., negative pressure ~10 mBar), the “Crystalline structure after heat and negative pressure” value is “did not change under any of the conditions”.

The solubility is the dissolved amount per volume that the medium holds. A high value points to much dissolved substance.

The values are drawn from US20060004207A1, “Preparation of new pharmaceutically suitable salt of losartan and forms thereof with new purification and isolation methods” (priority 2003, published 2006).
